Data reported in patent US20220033448A1, “METHODS FOR AGGREGATION OF PROTEINS” (priority 2011, published 2022).
Read-outs that look alike come from different tables or passages of the source. No end group written: not given here.

Tests used:
[1] = system: human erythrocytes; assay type: cell-based
Excerpt: The detergent Tween was used as a positive control, causing 100% lysis of RBCs.

[2] = system: B. cereus; conditions: planktonic, 18 hours
Description: (§2) Bacteria were grown in a shaking incubator at 37° C. and 160rpm in 50 ml BHI , using individual colonies retrieved from a fresh overnight TSA-sheep blood plate. The cultures were grown to a density of approximately 1×10^8cells/ml and then diluted to 5×10^5 cells/ml in CAMHB (Mc Farland 0.5). Each well contained 100p.I (50p.I of peptide containing MHB plus 50 μl inoculum). The final cell density was 1×10^5 to 5×10^5/ml. After addition of the cell suspension, plates were incubated at 37° C. for 18 to 24 hours. The optical density at 590 nm (OD590) of each well was measured after 5 seconds of shaking the plate using Perkin Elmer spectrophotometer (1420 Multilabel Counter Vicotr 3). […] Each well, where no growth was observed, was also plated on TSA-sheep blood agar plates, incubated at 37° C. overnight and visually inspected.
(§3) A microbroth dilution method was used with twofold serial dilutions in CAMHB (according to EMEA guidelines) was used for screening of peptide activity, with concentrations ranging from 0.3 μg/mIto 200 μg/ml.

[3] = system: Micrococcus luteus ATCC 9341; experiment: MIC, microbroth dilution; conditions: planktonic, 18 hours
Description: as §2

[4] = system: S. haemolyticus; experiment: MIC, microbroth dilution; conditions: planktonic, 18 hours
Description: as §2

[5] = system: Corynebacterium
[6] = system: Bacillus subtilis; experiment: MIC, microbroth dilution; conditions: planktonic, 18 hours
Description: as §2

[7] = system: S. hominis; conditions: S. hominis; planktonic; 18 hours
Description: as §2, §3

[8] = system: S. epidermidis; conditions: planktonic, 18 hours
Description: as §2, §3

[9] = system: negative regulator of genetic competence CIpC/mecB; experiment: SOSPA shotgun proteomic analysis of soluble / insoluble fractions; assay type: cell-based, S.aureus and B.cereus; conditions: C30 treated vs untreated cells
Excerpt: The aggregation technology is based on the assumption that short amino acid stretches, with a high propensity of aggregation (e.g. assessed by the TANGO score) and that are derived from a target protein, can induce aggregation of that protein. This hypothesis has been confirmed by a shotgun proteomic analysis of the insoluble fraction. If we assume that our aggregator peptides work through specific interaction with its target and causes its aggregation, it is expected that the target enters the insoluble fraction. For this reason we've decided to split the lysate into 2 fractions: insoluble and soluble and compare these with untreated cell fractions. Proteins present in both treated (TC30) and untreated (NT) insoluble fractions were assumed to present a background of non-specific naturally non-soluble proteins. Additionally we've examined soluble fractions of both treated and untreated bacteria and as expected the protein of interest was present only in the untreated fraction. This means that the following criteria for target search were used:
1) potential aggregation targets are proteins obtained from the list of proteins in the Insoluble fraction of C30 treated cells minus proteins in the Insoluble fraction of non-treated cells […]

[10] = system: Candida albicans SC5314; experiment: Adherence of C. albicans SC5314 to epithelial cell line TR-146; assay type: cell-based; conditions: adhesion 1 h
Description: (§1) As discussed herein before, C. albicans Als3 also plays a role in adherence and invasion to epithelial and endothelial cells. […] Here we investigated the effect of external application of interferor peptide F9 on C. albicans SC5314 adherence and invasion to epithelial cells. Thereto, Candida cells were incubated together with the human cells (epithelial cell line TR-146) in the presence of peptide F9 during adhesion (1 h) or invasion (3 h). The amount of adhered and internalized cells was determined by counting using epifluorescence.
C. albicans strains were grown in liquid YPD, succinate, pH 6.5 or YNB (4% D-glucose) at 30° C. in a shaking incubator overnight. Candida cells were washed three times with 1× PBS and determined to a final concentration 1×10^5 cells/ml in DMEM containing NaHCO3, D-glucose, Na-pyruvate and stable glutamine without FCS. The TR-146 were grown on 12 mm glass slides and inoculated with Candida cells. Different concentrations of positive peptide F9 (50 μM, 10 μM and 2.5 μM) and negative peptides F9_negat, 13 and 20 (50 μM) were tested on Candida adhesion to epithelial cells. Adhesion assay was allowed for 1 h at 37° C., 5% CO2. After adhesion, the cells were washed three times with 1× PBS to remove non-adherent cells and then fixed with 4% paraformaldehyde for 30 min at room temperature.
After extensive rinsing with 1× PBS, the cells were permeabilized in 0.5% Triton X-100 in water for 5 min, and subsequently stained with calcofluor white (dilution 1:100) for 15 min and further washed with water, three times for 10 min, at 30° C., 180 rpm. Coverslips were mounted inverted on a microscope slide and quantified under epifluorescence using a filter set to detect calcofluor white (filter for DAPI) (Leica DFC350 FX, Mannheim, Germany). The percentage of adhered cells was calculated as an average of attached Candida cells on one hundred areas spread over the entire surface of the coverslip.

[11] = system: Candida albicans SC5314; experiment: Invasion of C. albicans SC5314 into epithelial cell line TR-146; assay type: cell-based; conditions: invasion 3 h
Description: as §1
The monolayers of TR-146 cell lines were infected with Candida cells as previously described in 6.2.15. After 3 h incubation period of monolayers with Candida cells at 37° C., 5% CO2, the medium above the epithelial cells was aspirated and the monolayers were rinsed three times with 1× PBS to remove fungal cells which were not associated with epithelial cells. Next, the epithelial cells were fixed with 4% Histofix (Roth) for 20 min at 37° C. All fungal cells remaining adherent to the surface were stained for 1 h with a rabbit anti-C. albicans polyclonal antibody (Acris Antibodies, Germany) (dilution 1:2000) and counterstained with a secondary anti-rabbit IgG conjugated with Alexa Fluor 488 (Invitrogen) (dilution 1:5000). After extensive rinsing with 1× PBS, the cells were permeabilized in 0.5% Triton X-100 in water for 5 min. Further, adherent and invading parts of fungal cells within epithelial cells were stained with calcofluor white (dilution 1:100) for 15 min and washed three times with water, for 10 min at 30° C., 180 rpm. Coverslips were mounted inverted onto glass slides and the stained cells were visualized with epifluorescence using a filter set to detect calcofluor white (filter for DAPI) and Alexa Fluor 488 (Leica DFC350 FX, Mannheim, Germany). The percentage of invading C. albicans cells was determined by dividing the number of internalized cells by the total number of adherent cells. At least 100 fungal cells were counted on each coverslip.

## RILLGLIRRGSRILLGLIRR [C30]
[1]
  HD50 (concentration at which 50% of red blood cells are lysed): 25 to 50 µg/mL
[2]; Bacillus cereus 1
  MIC: Bacillus cereus 1: 6 μg/ml
[2]; Bacillus cereus 2
  MIC: Bacillus cereus 2: 6 μg/ml
[3]
  MIC: Micrococcus luteus ATCC 9341: 3 μg/ml
[4]
  MIC: S. haemolyticus: 1.5 μg/ml
[5]
  activity against the genus Corynebacterium: active against the genus Corynebacterium
[6]; Bacillus subtilis ATCC 6051
  MIC: Bacillus subtilis ATCC 6051: 1.5 μg/ml
[6]; Bacillus subtilis IP 5832
  MIC: Bacillus subtilis IP 5832: 6 μg/ml
[7]
  MIC: S. hominis: 3 μg/ml
[8]; S101
  MIC: S101: 1.5 μg/ml
[8]; S103
  MIC: S103: 1.5 μg/ml
[8]; S104
  MIC: S104: 1.5 μg/ml
[8]; S109
  MIC: S109: 3 μg/ml
[8]; S. epidermidis ATCC 13228
  MIC: S. epidermidis ATCC 13228: 1.5 μg/ml
[9]
  distribution of the target protein between soluble and insoluble fraction: shifted from soluble into insoluble fraction upon peptide treatment

## RKLLFNLGSRNGIVIVATTR [F9]
[10]; 2.5 μM
  decrease of Candida adhesion to epithelial cells compared to the control: ~15%
[10]; 10 μM
  decrease of Candida adhesion to epithelial cells compared to the control: approximately 20%
[10]; 50 μM
  decrease of Candida adhesion to epithelial cells compared to the control: 40%
[11]; 2.5 μM
  effect on invasion of epithelial cells: did not have any effect on invasion
[11]; 10 μM
  decrease of invasion of epithelial cells: 15%
[11]; 50 μM
  decrease of invasion of epithelial cells: 34%
